Experimental data as given in patent publication EP2530078A1, “THIAZOLE DERIVATIVE” (Takeda Pharmaceutical Company Limited, priority 2010, dated 2011).
Structures can show the parent of a compound that is named as a salt.

Key:
[1] = system: methamphetamine-induced locomotor hyperactivity in mice; test: Inhibition test of methamphetamine-induced locomotor hyperactivity; assay type: in vivo; details: male ICR mice, test compound 30 mg/kg body weight orally, methamphetamine 2 mg/kg body weight subcutaneously 60 min later; relative to vehicle treatment group
Experimental: Inhibition test of methamphetamine-induced locomotor hyperactivity
The compound of the present invention can be evaluated by assessing its capacity to inhibit methamphetamine-induced locomotor hyperactivity in mice. The method of Okuyama et al (Life Science, Vol. 65, p. 2109-2125 (1999)) was modified and used for testing the inhibition of methamphetamine-induced locomotor hyperactivity.
Locomotor activity was measured using a 32-channel locomotor activity measurement device MDC-LT (BrainScience Idea Co., Ltd.), which emits infrared beams from the top of a cage (30 cm x 40 cm x 20 cm). 6- to 8-Week-old male ICR mice were acclimated for at least 45 min in the measurement cages, and then either test compound (30 mg/kg body weight) dissolved in vehicle (0.5% aqueous methylcellulose solution) or the vehicle alone was orally administered to the laboratory animals. This oral administration was followed 60 min later by subcutaneous administration of methamphetamine (2 mg/kg body weight).
The number of times the laboratory animals passed through the infrared beams emitted inside the measurement cages in 150 min after administration of the test compound or vehicle was counted to quantify locomotor activity. The methamphetamine-induced locomotor hyperactivity inhibition rate (activity inhibition rate (%)) was calculated by the following equation. Activityinhibitionrate(%) = {1-(locomotoractivityoftestcompoundtreatmentgroupaftertreatmentwithmethamphetamine÷locomotoractivityofvehicletreatmentgroupaftertreatmentwithmethamphetamine)}x100 [formula]

[2] = target: T1, human GPR52 (Homo sapiens, UniProt Q9Y2T5); test: Increase of intracellular cAMP concentration in human GPR52-expressing CHO cell (AlphaScreen cAMP assay); assay type: cell-based; details: test compound 10 µm, 37°C, 30 min, human GPR52-expressing CHO(dhfr-) cells, 100% = cAMP with 1 µM N-(2-hydroxyethyl)-3-[2-[3-(trifluoromethyl)benzyl]-1-benzofuran-4-yl]benzamide, 0% = DMSO; for activation at 10 µM: 0.5 h, read-out: GPR52 agonist activity (%)
T1 construct: expressed in transfected cells; host or cells: CHO(dhfr-) cells
Experimental: Increase of intracellular cAMP concentration in human GPR52-expressing CHO cell
Using OptiPlate-384 (PerkinElmer Inc.), 1×10^4 human GPR52-expressing CHO(dhfr-) cells were incubated together with a test compound ([…]) in an assay buffer (30 µL, HBSS (containing Ca^2+ and Mg^2+), 0.5% BSA, 100 µM IBMX, 100 µM Ro20-1724, 5 mM HEPES (pH 7.55)) at 37°C for 30 min. Thereafter, according to the protocol of AlphaScreen cAMP Assay Kit (PerkinElmer Inc.), the intracellular cAMP concentration was measured by EnVision (PerkinElmer Inc.). The GPR52 agonist activity was calculated, assuming the intracellular cAMP concentration in the presence of 1 µM N-(2-hydroxyethyl)-3-[2-[3-(trifluoromethyl)benzyl]-1-benzofuran-4-yl]benzamide to be 100% and assuming the intracellular cAMP concentration when DMSO was added instead of the test compound to be 0%.

T1 sequence (Q9Y2T5 whole entry): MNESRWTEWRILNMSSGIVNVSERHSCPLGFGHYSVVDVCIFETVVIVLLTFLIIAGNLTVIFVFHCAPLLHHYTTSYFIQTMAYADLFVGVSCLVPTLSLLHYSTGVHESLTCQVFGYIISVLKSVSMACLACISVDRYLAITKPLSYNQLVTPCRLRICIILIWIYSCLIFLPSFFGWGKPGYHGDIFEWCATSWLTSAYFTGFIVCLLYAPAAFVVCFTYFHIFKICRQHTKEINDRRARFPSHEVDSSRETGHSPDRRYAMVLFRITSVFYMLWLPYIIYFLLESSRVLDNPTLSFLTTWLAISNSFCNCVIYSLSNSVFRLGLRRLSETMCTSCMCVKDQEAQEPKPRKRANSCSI

Compound | motor activity suppression rate (%) [1] | GPR52 agonist activity (%) [2] | activation at 10 µM [2]
Cc1nc(Cc2cccc(C(F)(F)F)c2)sc1NC(=O)c1ccnn1C [Example 3, 1-methyl-N-{4-methyl-2-[3-(trifluoromethyl)benzyl]-1,3-thiazol-5-yl}-1H-pyrazole-5-carboxamide] | 32% | 81% | 
Cc1nc(Cc2cc(F)cc(Cl)c2)sc1NC(=O)c1ccnn1C [Example 145, N-[2-(3-chloro-5-fluorobenzyl)-4-methyl-1,3-thiazol-5-yl]-1-methyl-1H-pyrazole-5-carboxamide] | 47% |  | 95%
Cc1nn(C)cc1C(=O)Nc1sc(Cc2cc(F)cc(Cl)c2)nc1C [Example 146, N-[2-(3-chloro-5-fluorobenzyl)-4-methyl-1,3-thiazol-5-yl]-1,3-dimethyl-1H-pyrazole-4-carboxamide] | 42% |  | 84%
CCn1nccc1C(=O)Nc1sc(Cc2cc(F)cc(Cl)c2)nc1C [Example 148, N-[2-(3-chloro-5-fluorobenzyl)-4-methyl-1,3-thiazol-5-yl]-1-ethyl-1H-pyrazole-5-carboxamide] | 67% |  | 76%
CCCn1nccc1C(=O)Nc1sc(Cc2cc(F)cc(Cl)c2)nc1C [Example 153, N-[2-(3-chloro-5-fluorobenzyl)-4-methyl-1,3-thiazol-5-yl]-1-propyl-1H-pyrazole-5-carboxamide] | 39% |  | 72%
COc1cc(C(=O)Nc2sc(Cc3cc(F)cc(Cl)c3)nc2C)n(C)n1 [Example 235, N-[2-(3-chloro-5-fluorobenzyl)-4-methyl-1,3-thiazol-5-yl]-3-methoxy-1-methyl-1H-pyrazole-5-carboxamide] |  |  | 79%
Cc1nc(Cc2cc(F)cc(Cl)c2)sc1NC(=O)c1cc(CN2CCOCC2)nn1C [Example 238, N-[2-(3-chloro-5-fluorobenzyl)-4-methyl-1,3-thiazol-5-yl]-1-methyl-3-(morpholinomethyl)-1H-pyrazole-5-carboxamide monohydrochloride] |  |  | 80%
Cc1nc(Cc2cc(F)cc(Cl)c2)sc1NC(=O)c1cc(CS(C)(=O)=O)nn1C [Example 242, N-[2-(3-chloro-5-fluorobenzyl)-4-methyl-1,3-thiazol-5-yl]-1-methyl-3-[(methylsulfonyl)methyl]-1H-pyrazole-5-carboxamide] |  |  | 76%
Cc1nc(Cc2cc(F)cc(Cl)c2)sc1NC(=O)c1cc(Cn2ccnc2)nn1C [Example 243, N-[2-(3-chloro-5-fluorobenzyl)-4-methyl-1,3-thiazol-5-yl]-3-[(1H-imidazol-1-yl)methyl]-1-methyl-1H-pyrazole-5-carboxamide] |  |  | 77%
Cc1nc(Cc2cc(F)cc(Cl)c2)sc1NC(=O)c1cc(S(C)(=O)=O)nn1C [Example 246, N-[2-(3-chloro-5-fluorobenzyl)-4-methyl-1,3-thiazol-5-yl]-1-methyl-3-(methylsulfonyl)-1H-pyrazole-5-carboxamide] |  |  | 70%
Cc1nc(Cc2cc(F)cc(Cl)c2)sc1NC(=O)c1cc([S+](C)[O-])nn1C (stereo not shown) [Example 247, N-[2-(3-chloro-5-fluorobenzyl)-4-methyl-1,3-thiazol-5-yl]-1-methyl-3-(methylsulfinyl)-1H-pyrazole-5-carboxamide] |  |  | 69%
Cc1nc(Cc2cc(F)cc(C3CC3)c2)sc1NC(=O)c1ccnn1C [Example 249, N-[2-(3-cyclopropyl-5-fluorobenzyl)-4-methyl-1,3-thiazol-5-yl]-1-methyl-1H-pyrazole-5-carboxamide] |  |  | 99%
Cc1nc(Cc2cc(F)cc(Cl)c2)sc1NC(=O)Cn1cnnn1 [Example 252, N-[2-(3-chloro-5-fluorobenzyl)-4-methyl-1,3-thiazol-5-yl]-2-(1H-tetrazol-1-yl)acetamide] |  |  | 72%
N^4-[2-(3-chloro-5-fluorobenzyl)-4-methyl-1,3-thiazol-5-yl]piperidine-1,4-dicarboxamide [Example 254] |  | 77% | 
